Reference: PubChem BioAssay (NCI)
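Assay format: 96-well plates, 48-hour exposure. GI50 = concentration required for 50% inhibition of growth. TGI: total growth inhibition.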

Legend:
Experiment in all cases: NCI-60 cell line screen, 48 h
UACC-62 melanoma = test system: UACC-62 melanoma
SK-MEL-28 melanoma = test system: SK-MEL-28 melanoma
RPMI-8226 leukemia = test system: RPMI-8226 leukemia
K-562 leukemia = test system: K-562 leukemia
T-47D breast = test system: T-47D breast
CCRF-CEM leukemia = test system: CCRF-CEM leukemia
MOLT-4 leukemia = test system: MOLT-4 leukemia
COLO 205 colon = test system: COLO 205 colon
RXF 393 renal = test system: RXF 393 renal
U251 CNS = test system: U251 CNS

SMILES | GI50 (UACC-62 melanoma) [µM] | TGI (UACC-62 melanoma) [µM] | GI50 (SK-MEL-28 melanoma) [µM] | TGI (SK-MEL-28 melanoma) [µM] | GI50 (RPMI-8226 leukemia) [µM] | TGI (RPMI-8226 leukemia) [µM] | GI50 (K-562 leukemia) [µM] | TGI (K-562 leukemia) [µM] | GI50 (T-47D breast) [µM] | TGI (T-47D breast) [µM] | GI50 (CCRF-CEM leukemia) [µM] | TGI (CCRF-CEM leukemia) [µM] | GI50 (MOLT-4 leukemia) [µM] | TGI (MOLT-4 leukemia) [µM] | GI50 (COLO 205 colon) [µM] | TGI (COLO 205 colon) [µM] | GI50 (RXF 393 renal) [µM] | TGI (RXF 393 renal) [µM] | GI50 (U251 CNS) [µM] | TGI (U251 CNS) [µM]
Nc1nc(-c2ccccc2)nc(N)c1N=O | 3.6 | 14 | 11.9 | 30.6 | 17.9 | 78.7 | 5.09 | 72.3 | 4.63 | 23.1 | 5.8 | > 100 | 17.4 | > 100 | 2.59 | 8.45 | 2.07 | 7.07 | 5.13 | 17.9
COc1cc(Nc2ccnc(NCCCNc3ccnc4cc(Cl)ccc34)n2)cc(OC)c1 | 1.67 | 3.13 | 1.66 | 3.09 | 1.56 | 4.11 | 0.52 | 2.39 | 1.89 | 4.81 | 1.19 | 3.88 | 2.23 | 6.39 | 1.38 | 2.9 |  |  | 1.38 | 2.75
O=C1c2ccccc2C(=O)c2c1ccc(C1C(=O)c3ccccc3C1=O)c2-c1c(C2C(=O)c3ccccc3C2=O)ccc2c1C(=O)c1ccccc1C2=O |  | > 100 |  | > 100 |  | > 100 |  | > 100 |  | > 100 |  |  |  | 82.5 |  | > 100 |  | > 100 |  | > 100
Fc1ccc(Nc2nc3nonc3nc2Nc2ccc(F)cc2)cc1 | 0.283 | 3.22 | 0.505 | 11 | 0.207 | 0.697 | 0.352 | 12.4 | 0.221 | 0.775 | 0.35 | 10.1 | 0.356 | 1.65 | 0.342 | 1.43 |  |  | 0.387 | 10.8
CCCCCCCCCc1cccc(N2C(N)=NC(N)=NC2(C)C)c1 |  | 4.07 |  | 3.44 |  | > 100 |  |  |  | 5.75 |  | > 100 |  |  |  | 2.38 |  | > 100 |  | 0.62
O=[N+]([O-])c1c(Br)sc(Br)c1[N+](=O)[O-] | 1.87 | 4.68 | 2.01 | 4.54 | 1.91 | 5.54 | 0.815 | 3.99 | 1.84 | 4.38 | 1.11 | 4.15 | 1.01 | 5.35 | 1.57 | 3.38 | 1.47 | 2.85 | 2.15 | 5.46
Nc1nc(-c2ccc(F)cc2)c(-c2ccc3ncccc3n2)s1 | > 23.2 | > 25 | > 25 | > 25 | > 19.8 | > 25 | > 18.5 | > 25 | 4.32 | > 25 | > 22.1 | > 25 | 17.4 | > 25 | > 25 | > 25 | 12.3 | > 25 | > 24.1 | > 25
